Data: patent US6642365B1, “Anti-(retro)viral conjugates of saccharides and acetamidino or guanidino compounds” (Yeda Research and Development Co. Ltd., priority 2001, dated 2003)

What was measured:
[1] = test system: rG15, rG15-rC15 duplex and truncated TAR RNA sequences; assay: Gel-shift binding to short RNA oligonucleotides (specificity); conditions: micromolar concentration range; data not shown
[2] = molecular target: CXCR4 (Homo sapiens, UniProt P61073); assay: Inhibition of anti-CXCR4 mAb (12G5) binding, flow cytometry, SUP-T1 cells; design: endogenous in cells; conditions: for affinity for CXCR4: inhibition of 12G5 binding to SUP-T1 cells or PMBC
CXCR4, sequence (P61073 whole entry): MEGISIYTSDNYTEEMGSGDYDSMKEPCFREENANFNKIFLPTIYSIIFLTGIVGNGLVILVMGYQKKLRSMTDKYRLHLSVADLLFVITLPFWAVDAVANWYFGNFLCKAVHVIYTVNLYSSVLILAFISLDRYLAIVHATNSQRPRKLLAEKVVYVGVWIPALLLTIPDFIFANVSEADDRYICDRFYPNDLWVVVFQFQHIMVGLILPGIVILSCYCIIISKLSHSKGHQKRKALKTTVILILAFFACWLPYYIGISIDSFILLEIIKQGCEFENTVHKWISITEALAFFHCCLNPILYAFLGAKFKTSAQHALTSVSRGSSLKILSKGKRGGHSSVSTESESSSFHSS
Procedure: Measurement of chemokine receptors CXCR4, CCR5 and the CD4 receptor on phytohemagglutinin (PHA)-activated PBMC was performed by flow cytometry analysis. Briefly, 0.5×10^6 cells were washed in ice-cold phosphate-buffered saline (PBS) and incubated for 30 minutes at 4÷C. with fluorescent labelled mAb 12G5 and 2D7 and Leu3a (Becton Dickinson, San Jose, Calif.) or with isotype control mAbs in the presence or absence of the test compound. Then, the cells were washed with ice-cold PBS and were fixed in PBS containing 1% formaldehyde. For each sample, 10,000 events were analysed in a FACScalibur™ system (Becton Dickinson). Data were acquired and analysed with CellQuest™ software (Becton Dickinson).

[3] = test system: TAR RNA; assay: RNase A footprinting of TAR RNA; assay type: binding, HIV-1; conditions: 1 μM TAR, 200 pM RNase A
Procedure: In a typical experiment 10 μl of 5 mM cacodylate buffer pH 6.5, containing 25 mM KCl and 50-100 ng 5′ ^32P-labeled TAR RNA (approximately 0.5-1 μM) were incubated with 200 pM RNase A (Sigma) at room temperature for 10 minutes in the presence of Tat R52 and the conjugates of the invention at various concentrations. In the competition experiments, the mixture was supplemented with 0.5 μg yeast tRNA (Sigma). After the incubation, 10 μl of formamide/bromphenol blue loading buffer was added to the samples. The samples were heated to 80° C. for 2 min and were resolved by electrophoresis on 40 cm×0.8 mm 20% polyacrylamide denaturing gel (7M urea) for 3 hours at 55° C. The results were visualized by a phosphoimager as described above and quantitated using ImageQuant software.
TAR RNA and RNase A concentrations were established by co-titration. To produce a “single-hit” kinetics conditions, 1 μM TAR versus 200 pM RNase A were selected. Tat R52 and AAC concentrations were determined by titration. […] RNase A cleaved TAR RNA in an uneven manner (FIG. 4A., lane 2). The most susceptible regions for cleavage were the single-stranded loop, nucleotides U31-G34 as well as C24 and U25 of the bulge. Strong cleavage was also observed at G21-G41 and A20-U42 pairs (lower stem). Binding of R52 (2-4 μM) caused a weakening of the bands in the upper stem region, (G26-C39, A27-C38, as well as U40) (FIG. 4A., lanes 3, 4). At 4 μM R52, the cleavage at G34 (loop) was enhanced, as well as a certain enhancement of bands A20, G21, U23 and U25 was observed. Remarkably, the band corresponding to the R52-TAR complex still was observed on the gels even after electrophoresis under strongly denaturing conditions. In the presence of R4K (10-20 μM), the upper stem (G26-C29), the lower stem and the bulge (G21-U23, partially C24 and U25) were protected as well as C38, C39 and U40. Cleavage at C19 and A20 of the lower stem and C30, G33 and G34 of the loop was enhanced by 10 μM R4K, whereas with 20 μM R4K the protection of C30, G34 and A20-G21 was observed (FIG. 4A., lanes 5, 6). […] Cleavages at C19-A20 in the lower stem as well as at G30 and G34 in the loop were observed (FIG. 4A., lanes 7, 8). In the presence of GB4K (20 μM) no significant protection was observed.

[4] = test system: equine infectious anemia virus (EIAV); assay: Antiviral activity in EIAV-infected ED fibroblasts; assay type: cell-based; conditions: for EIAV replication in ED cells (FIG. 8): R3G at 12.5 and 25 μM, R4K at 50 and 100 μM, 10 pfu per cell
Procedure: Both equine dermal fibroblasts (ED) and Equine Infectious Anemia Virus (EIAV), Wyoming isolate (Malmquist et al., 1973) were gifts from Profs. A. Yaniv and A. Gazit, from the Sackler Medical School of the Tel-Aviv University, Israel. ED cells were plated on plastic 6-well tissue culture plates (Nunclone) at density of […] per well in 2 ml of DMEM/10% FCS (fetal calf serum). The medium was removed after 12-20 hours and the cells were inoculated for 2 hours with 0.5 ml DMEM/10% FCS containing 5×10^6 pfu (plaque forming units) of EIAV and 10 μg/ml of polybrene (hexadimetrine bromide, Sigma) (Carpenter and Chesebro, 1989). Following the incubation, another 2.5 ml of DMEM/10% FCS was added to each well. […] Every […], 1.2 ml samples of the medium were collected and replaced with same amount of medium, containing radioactive uridine and the tested. The samples were clarified from cell debris by spinning at 12000 rpm for 5 minutes on the Eppendorf centrifuge. Viral particles from the clarified supernatants were collected by ultracentrifugation at 75000 rpm, 4° C. on the Beckman TL 100 centrifuge using TLA 100.2 rotor (Cheevers et al., 1977). The supernatants were carefully discarded and the pellet was resuspended in 200 μl of 1% SDS/5% Tritone X-100, mixed with 1 ml Ultima Gold scintillation liquid (Packard) and counted on LS 1701 Bruker scintillation counter. Typical duration of the experiment was 15 days; EIAV growth curves in the presence of various concentrations of the conjugates in the medium were obtained. Development of the cytopathic effect (cpe) in the infected ED cells was monitored by light microscopy.
Equine infectious anemia virus (EIAV) of Wyoming strain is adapted to grow in equine dermal fibroblasts (ED), without damaging them with a titer of 1 μfu per cell (Malmquist virus). […] In the absence of inhibitors, EIAV proliferated in the ED cells reaching a plato 9-12 days after infection (FIG. 8). […] Development of cpe started 10-12 days after infection, reaching a maximum on days 15-17, followed by rapid cell death and exfoliation from the plastic bottom of the well.

[5] = test system: HIV-1 AZT-resistant clinical isolate AOM; assay: Anti-HIV assay, MTT; assay type: cell-based
Procedure: The cells were infected by incubation with different titers of the HIV-1 strains for 2 hrs at 37° C. in the presence or absence of the AAC of the invention. Then the cells were washed from the virus by centrifugation at 400 g and the supernatants were discarded. The cells were resuspended in culture medium, supplemented with different concentrations of the test compounds. The cells were allowed to proliferate for 5 days, the number of viable cells was quantified by a tetrazolium-based colorimetric method (CellTiter 96® AQueous One solution Cell Proliferation Assay, Promega).

Compound | binding to short RNA oligonucleotides [1] | IC50 [2] | affinity for CXCR4 [2] | concentration giving effective protection of TAR [3] | EIAV replication in ED cells (FIG. 8) [4] | EC50 [5] | phenotype of EIAV-infected ED cells ([4]; 25 μM, day 13-15) | inhibition of cpe development ([4]; 25 and 50 μM, after 13-15 days) | viral titer compared to control ([4]; added during cpe onset (day 12-13), read at day 15)
N=C(N)NCCCC(N)C(=O)NCC1OC(OC2C(NC(=O)C(N)CCCNC(=N)N)CC(NC(=O)C(N)CCCNC(=N)N)C(OC3OC(CO)C(O)C(NC(=O)C(N)CCCNC(=N)N)C3O)C2O)C(O)C(O)C1O (stereo not drawn) [R4K, Tetraargininamido-kanamycin A conjugate] | did not display any binding | 3.7 µM | high affinity | 10 µM | inhibited the viral growth | 67 µM |  |  | 
Triargininamido-gentamicin conjugate [R3G] | did not display any binding | 7.7 µM | high affinity | 4 µM | inhibited the viral growth | 16 µM | preserved normal fibroblast phenotype | noticeable inhibition of the cpe development | decreased at least twice
